The values that follow come from patent US20030083374A1, “NAALADase inhibitors useful as pharmaceutical compounds and compositions” (priority 1998, published 2003).

Assay [1] has as its system cortical cell cultures. The assay is described as follows: in vitro assay of NAALADase inhibitors on ischemia in cortical cell cultures. Type of assay: cell-based. The conditions noted are these: concentration required to cause a 50% reduction in glutamate toxicity following an ischemic insult (potassium cyanide and 2-deoxyglucose). From the text: Some results are set forth in U.S. Pat. Nos. 5,672,592, 5,795,877, 5,863,536, 5,880,112 and 5,902,817, allowed U.S. patent application Ser. Nos. 08/825,997, 08/833,628, 08/842,360 and 08/899,319 for which the issue fees have been paid, the entire contents of which patents and applications are herein incorporated by reference. Other results are provided below in TABLE III.

Assay [2] concerns LNCaP cells. Conditions: as the concentration increased; cited from earlier work.
Assay [3] is described as follows: Example 14: each of the Examples and in vitro and in vivo assays described above. The conditions noted are these: each of their respective assays and Examples.

A word on the EC50: it is the concentration needed to bring the measured effect to its halfway point. With `O=C(O)CCC(CP(=O)(O)CNS(=O)(=O)c1ccccc1)C(=O)O` (centres unmarked), in assay [1], the EC50 was 792 nM.
In the case of `CCC(CS)C(CCC(=O)O)C(=O)O` (centres unmarked) [2-(1-ethyl-2-sulfanylethyl)pentanedioic acid], the EC50 in assay [1] worked out at 62 nM.
In assay [1], `O=C(O)CCC(CCCCS)C(=O)O` (centres unmarked) [2-(4-sulfanylbutyl)pentanedioic acid] displayed an EC50 of 36 nM.
As to `CC(CS)C(CCC(=O)O)C(=O)O` (centres unmarked) [2-(1-methyl-2-sulfanylethyl)pentanedioic acid], the EC50 in assay [1] came out at 141 nM.
On to `N[C@@H](Cn1oc(=O)[nH]c1=O)C(=O)O` [quisqualic acid, reference compound], for which, in assay [2], the LNCaP cell proliferation entry is recorded as “decreased significantly”.
`O=C(O)CCC(CP(=O)(O)CC(CCC(=O)O)C(=O)O)C(=O)O` (centres unmarked) displayed an EC50 in assay [1] of 0.04 nM.
For the compound `O=C(O)CCC(CP(=O)(O)CC(CCC(=O)OCc1ccccc1)C(=O)OCc1ccccc1)C(=O)O` (centres unmarked), the EC50 in assay [1] worked out at 0.01 nM.
On the same count and under the same terms, in the case of `O=C(O)CCC(CP(=O)(O)CN1C(=O)c2ccccc2C1=O)C(=O)O` (centres unmarked) it was 13 nM; in that of `O=C(O)CCC(CP(=O)(O)C(NCc1ccccc1)c1ccccc1)C(=O)O` (centres unmarked), 1 nM; in that of `O=C(O)CCC(CCSSCCC(CCC(=O)O)C(=O)O)C(=O)O` (centres unmarked) [2-[2-[(3,5-dicarboxypentyl)dithio]ethyl]pentanedioic acid], 17 nM.
Compound `CCCCC(S)CC(CCC(=O)O)C(=O)O` (centres unmarked) [2-(2-sulfanylhexyl)pentanedioic acid] registered an EC50 in assay [1] of 1000 nM.
In turn, `O=C(O)CCC(CP(=O)(O)CNc1ccccc1)C(=O)O` (centres unmarked) returned an EC50 in assay [1] of 12 nM.
In the case of `Cc1ccc(NCP(=O)(O)CC(CCC(=O)O)C(=O)O)cc1` (centres unmarked), the EC50 in assay [1] is 11 nM.
Turning to `CC(C)(C)c1ccc(NCP(=O)(O)CC(CCC(=O)O)C(=O)O)cc1` (centres unmarked), the EC50 in assay [1] amounted to 35 nM.
In the case of `O=C(O)CCC(CP(=O)(O)CNc1ccc(F)cc1)C(=O)O` (centres unmarked), in assay [1], the response was half-maximal at 3 nM (EC50).
The compound `O=C(O)CCC(CP(=O)(O)CNCc1ccccc1)C(=O)O` (centres unmarked) had an EC50 in assay [1] of 0.9 nM.
`COc1ccc(NCP(=O)(O)CC(CCC(=O)O)C(=O)O)cc1` (centres unmarked) showed an EC50 in assay [1] of 10 nM.
As for `CC(S)CC(CCC(=O)O)C(=O)O` (centres unmarked) [2-(2-sulfanylpropyl)pentanedioic acid], the “in vitro or in vivo activity” value in assay [3] is recorded as “exhibit in vitro or in vivo activity”.
`O=C(O)CCC(CC(S)c1ccccc1)C(=O)O` (centres unmarked) [2-(2-phenyl-2-sulfanylethyl)pentanedioic acid] had an EC50 in assay [1] of 29 nM.
With `CC(CS)CC(CCC(=O)O)C(=O)O` (centres unmarked) [2-(3-sulfanyl-2-methylpropyl)pentanedioic acid], the EC50 in assay [1] came to 80 nM.
